# Measurements: ChEMBL document CHEMBL2440076, “New triarylpyrazoles as broad-spectrum anticancer agents: design, synthesis, and biological evaluation” (Eur J Med Chem, 2013)
# Key:
# Assay type in all cases: functional
# [1] = system: MDA-MB-231; experiment: Growth inhibition of human MDA-MB-231 cells assessed as cell growth at 5X10'-6 M after 48 hrs by sulforhodamine B assay; conditions: MDA-MB-231, 48 h, read-out: Activity
# [2] = system: SW-620; experiment: Growth inhibition of human SW620 cells assessed as cell growth at 5X10'-6 M after 48 hrs by sulforhodamine B assay; conditions: SW-620, 48 h, read-out: Activity
# [3] = system: U-251; experiment: Growth inhibition of human U251 cells assessed as cell growth at 5X10'-6 M after 48 hrs by sulforhodamine B assay; conditions: U-251, 48 h, read-out: Activity
# [4] = system: 786-0; experiment: Growth inhibition of human 786-0 cells assessed as cell growth at 5X10'-6 M after 48 hrs by sulforhodamine B assay; conditions: 786-0, 48 h, read-out: Activity
# [5] = system: 786-0; experiment: Growth inhibition of human 786-0 cells assessed as cell growth at 5X10'-7 M after 48 hrs by sulforhodamine B assay; conditions: 786-0, 48 h, read-out: Activity
# [6] = system: A549; experiment: Growth inhibition of human A549/ATCC cells assessed as cell growth at 5X10'-9 M after 48 hrs by sulforhodamine B assay; conditions: A549, 48 h, read-out: Activity
# [7] = system: SN12C; experiment: Growth inhibition of human SN12C cells assessed as cell growth at 5X10'-7 M after 48 hrs by sulforhodamine B assay; conditions: read-out: Activity
# [8] = system: UACC-62; experiment: Growth inhibition of human UACC62 cells assessed as cell growth at 5X10'-5 M after 48 hrs by sulforhodamine B assay; conditions: UACC-62, 48 h, read-out: Activity
# [9] = system: UACC-257; experiment: Growth inhibition of human UACC257 cells assessed as cell growth at 5X10'-7 M after 48 hrs by sulforhodamine B assay; conditions: UACC-257, 48 h, read-out: Activity
# [10] = system: IGROV-1; experiment: Growth inhibition of human IGROV1 cells assessed as cell growth at 5X10'-7 M after 48 hrs by sulforhodamine B assay; conditions: IGROV-1, 48 h, read-out: Activity
# [11] = system: SW-620; experiment: Growth inhibition of human SW620 cells assessed as cell growth at 5X10'-9 M after 48 hrs by sulforhodamine B assay; conditions: SW-620, 48 h, read-out: Activity
# [12] = system: CAKI-1; experiment: Growth inhibition of human CAKI-1 cells assessed as cell growth at 5X10'-6 M after 48 hrs by sulforhodamine B assay; conditions: CAKI-1, 48 h, read-out: Activity
# [13] = system: K562; experiment: Growth inhibition of human K562 cells assessed as cell growth at 5X10'-7 M after 48 hrs by sulforhodamine B assay; conditions: K562, 48 h, read-out: Activity
# [14] = system: UO-31; experiment: Growth inhibition of human UO31 cells assessed as cell growth at 5X10'-7 M after 48 hrs by sulforhodamine B assay; conditions: UO-31, 48 h, read-out: Activity
# [15] = system: SK-OV-3; experiment: Growth inhibition of human SKOV3 cells assessed as cell growth at 5X10'-7 M after 48 hrs by sulforhodamine B assay; conditions: SK-OV-3, 48 h, read-out: Activity
# [16] = system: COLO 205; experiment: Growth inhibition of human COLO205 cells assessed as cell growth at 5X10'-9 M after 48 hrs by sulforhodamine B assay; conditions: COLO 205, 48 h, read-out: Activity
# [17] = system: HT-29; experiment: Growth inhibition of human HT-29 cells assessed as cell growth at 5X10'-7 M after 48 hrs by sulforhodamine B assay; conditions: HT-29, 48 h, read-out: Activity
# [18] = system: UACC-257; experiment: Growth inhibition of human UACC257 cells assessed as cell growth at 5X10'-9 M after 48 hrs by sulforhodamine B assay; conditions: UACC-257, 48 h, read-out: Activity
# [19] = system: MCF7; experiment: Growth inhibition of human MCF7 cells assessed as cell growth at 5X10'-5 M after 48 hrs by sulforhodamine B assay; conditions: MCF7, 48 h, read-out: Activity
# [20] = system: NCI-H522; experiment: Growth inhibition of human NCI-H522 cells assessed as cell growth at 5X10'-6 M after 48 hrs by sulforhodamine B assay; conditions: NCI-H522, 48 h, read-out: Activity
# [21] = system: LOX IMVI; experiment: Growth inhibition of human LOXIMVI cells assessed as cell growth at 5X10'-7 M after 48 hrs by sulforhodamine B assay; conditions: read-out: Activity
# [22] = system: DU-145; experiment: Growth inhibition of human DU145 cells assessed as cell growth at 5X10'-7 M after 48 hrs by sulforhodamine B assay; conditions: DU-145, 48 h, read-out: Activity
# [23] = system: M14; experiment: Growth inhibition of human M14 cells assessed as cell growth at 5X10'-6 M after 48 hrs by sulforhodamine B assay; conditions: M14, 48 h, read-out: Activity
# [24] = system: T47D; experiment: Growth inhibition of human T47D cells assessed as cell growth at 5X10'-9 M after 48 hrs by sulforhodamine B assay; conditions: read-out: Activity
# [25] = system: HOP-62; experiment: Growth inhibition of human HOP62 cells assessed as cell growth at 5X10'-9 M after 48 hrs by sulforhodamine B assay; conditions: HOP-62, 48 h, read-out: Activity
# [26] = system: HCT-15; experiment: Growth inhibition of human HCT15 cells assessed as cell growth at 5X10'-9 M after 48 hrs by sulforhodamine B assay; conditions: HCT-15, 48 h, read-out: Activity
# [27] = system: PC-3; experiment: Growth inhibition of human PC3 cells assessed as cell growth at 5X10'-5 M after 48 hrs by sulforhodamine B assay; conditions: PC-3, 48 h, read-out: Activity
# [28] = Growth inhibition of human NCI-ADR-RES cells assessed as cell growth at 5X10'-5 M after 48 hrs by sulforhodamine B assay; conditions: read-out: Activity
# [29] = Growth inhibition of human NCI-ADR-RES cells assessed as cell growth at 5X10'-7 M after 48 hrs by sulforhodamine B assay; conditions: read-out: Activity
# [30] = system: BT-549; experiment: Growth inhibition of human BT549 cells assessed as cell growth at 5X10'-9 M after 48 hrs by sulforhodamine B assay; conditions: BT-549, 48 h, read-out: Activity
# [31] = system: RPMI-8226; experiment: Growth inhibition of human RPMI8226 cells assessed as cell growth at 5X10'-8 M after 48 hrs by sulforhodamine B assay; conditions: RPMI-8226, 48 h, read-out: Activity
# [32] = system: NCI-H460; experiment: Growth inhibition of human NCI-H460 cells assessed as cell growth at 5X10'-6 M after 48 hrs by sulforhodamine B assay; conditions: NCI-H460, 48 h, read-out: Activity
# [33] = system: NCI-H322M; experiment: Growth inhibition of human NCI-H322M cells assessed as cell growth at 5X10'-9 M after 48 hrs by sulforhodamine B assay; conditions: read-out: Activity
# [34] = system: NCI-H460; experiment: Growth inhibition of human NCI-H460 cells assessed as cell growth at 5X10'-9 M after 48 hrs by sulforhodamine B assay; conditions: NCI-H460, 48 h, read-out: Activity
# [35] = system: DU-145; experiment: Growth inhibition of human DU145 cells assessed as cell growth at 5X10'-9 M after 48 hrs by sulforhodamine B assay; conditions: DU-145, 48 h, read-out: Activity
# [36] = system: RXF 393; experiment: Growth inhibition of human RXF393 cells assessed as cell growth at 5X10'-7 M after 48 hrs by sulforhodamine B assay; conditions: RXF 393, 48 h, read-out: Activity
# [37] = system: 786-0; experiment: Growth inhibition of human 786-0 cells assessed as cell growth at 5X10'-5 M after 48 hrs by sulforhodamine B assay; conditions: 786-0, 48 h, read-out: Activity
Compound,growth at 5 µM [1],growth at 5 µM [2],growth at 5 µM [3],growth at 5 µM [4],growth at 0.5 µM [5],growth at 0.005 µM [6],growth at 0.5 µM [7],growth at 50 µM [8],growth at 0.5 µM [9],growth at 0.5 µM [10],growth at 0.005 µM [11],growth at 5 µM [12],growth at 0.5 µM [13],growth at 0.5 µM [14],growth at 0.5 µM [15],growth at 0.005 µM [16],growth at 0.5 µM [17],growth at 0.005 µM [18],growth at 50 µM [19],growth at 5 µM [20],also measured
COc1cc(-c2nn(-c3cccc(NC(=O)Nc4cccc(C(F)(F)F)c4)c3)cc2-c2ccncc2)ccc1Cl,-35%,5%,-86%,-9%,91%,97%,80%,-87%,83%,85%,98%,-14%,53%,61%,102%,98%,72%,96%,-8%,-30%,growth at 0.5 µM [21]: 81%; growth at 0.5 µM [22]: 90%; growth at 5 µM [23]: -54%; growth at 0.005 µM [24]: 95%; growth at 0.005 µM [25]: 93%; growth at 0.005 µM [26]: 100%; growth at 50 µM [27]: -22%; growth at 50 µM [28]: -9%; growth at 0.5 µM [29]: 65%; growth at 0.005 µM [30]: 98%; growth at 0.05 µM [31]: 97%; growth at 5 µM [32]: -11%; growth at 0.005 µM [33]: 89%; growth at 0.005 µM [34]: 100%; growth at 0.005 µM [35]: 105%; growth at 0.5 µM [36]: 74%; growth at 50 µM [37]: -22%
COc1cc(-c2nn(-c3cccc(NC(=O)Nc4cc(C(F)(F)F)cc(C(F)(F)F)c4)c3)cc2-c2ccncc2)ccc1Cl,-84%,-51%,-77%,-60%,92%,96%,75%,-72%,82%,76%,98%,-20%,42%,62%,95%,107%,70%,94%,-5%,-48%,growth at 0.5 µM [21]: 84%; growth at 0.5 µM [22]: 86%; growth at 5 µM [23]: -29%; growth at 0.005 µM [24]: 101%; growth at 0.005 µM [25]: 100%; growth at 0.005 µM [26]: 97%; growth at 50 µM [27]: -31%; growth at 50 µM [28]: -16%; growth at 0.5 µM [29]: 72%; growth at 0.005 µM [30]: 103%; growth at 0.05 µM [31]: 95%; growth at 5 µM [32]: -41%; growth at 0.005 µM [33]: 97%; growth at 0.005 µM [34]: 99%; growth at 0.005 µM [35]: 106%; growth at 0.5 µM [36]: 82%; growth at 50 µM [37]: -63%
COc1cc(-c2nn(-c3cccc(NC(=O)c4cccc(C(F)(F)F)c4)c3)cc2-c2ccncc2)ccc1Cl,9%,30%,14%,27%,101%,102%,92%,13%,87%,86%,99%,24%,83%,62%,101%,108%,86%,105%,9%,-10%,growth at 0.5 µM [21]: 84%; growth at 0.5 µM [22]: 92%; growth at 5 µM [23]: 11%; growth at 0.005 µM [24]: 92%; growth at 0.005 µM [25]: 95%; growth at 0.005 µM [26]: 98%; growth at 50 µM [27]: 14%; growth at 50 µM [28]: -9%; growth at 0.5 µM [29]: 86%; growth at 0.005 µM [30]: 99%; growth at 0.05 µM [31]: 98%; growth at 5 µM [32]: 4%; growth at 0.005 µM [33]: 91%; growth at 0.005 µM [34]: 100%; growth at 0.005 µM [35]: 98%; growth at 0.5 µM [36]: 68%; growth at 50 µM [37]: 3%
O=C(Nc1cccc(-n2cc(-c3ccncc3)c(-c3ccc(Cl)c(O)c3)n2)c1)Nc1cc(C(F)(F)F)cc(C(F)(F)F)c1,-68%,1%,-83%,-23%,93%,96%,72%,-89%,84%,71%,99%,-4%,46%,62%,98%,105%,72%,94%,-64%,-28%,growth at 0.5 µM [21]: 76%; growth at 0.5 µM [22]: 80%; growth at 5 µM [23]: -47%; growth at 0.005 µM [24]: 97%; growth at 0.005 µM [25]: 95%; growth at 0.005 µM [26]: 98%; growth at 50 µM [27]: -49%; growth at 50 µM [28]: -56%; growth at 0.5 µM [29]: 74%; growth at 0.005 µM [30]: 99%; growth at 0.05 µM [31]: 95%; growth at 5 µM [32]: -51%; growth at 0.005 µM [33]: 108%; growth at 0.005 µM [34]: 101%; growth at 0.005 µM [35]: 106%; growth at 0.5 µM [36]: 82%; growth at 50 µM [37]: -71%
O=C(Nc1cccc(-n2cc(-c3ccncc3)c(-c3ccc(Cl)c(O)c3)n2)c1)c1ccc(N2CCOCC2)c(C(F)(F)F)c1,8%,2%,16%,35%,95%,102%,97%,-30%,90%,112%,102%,34%,103%,112%,106%,98%,102%,100%,12%,29%,growth at 0.5 µM [21]: 92%; growth at 0.5 µM [22]: 96%; growth at 5 µM [23]: 18%; growth at 0.005 µM [24]: 97%; growth at 0.005 µM [25]: 91%; growth at 0.005 µM [26]: 94%; growth at 50 µM [27]: 7%; growth at 50 µM [28]: 16%; growth at 0.5 µM [29]: 96%; growth at 0.005 µM [30]: 100%; growth at 0.05 µM [31]: 99%; growth at 5 µM [32]: 9%; growth at 0.005 µM [33]: 100%; growth at 0.005 µM [34]: 103%; growth at 0.005 µM [35]: 98%; growth at 0.5 µM [36]: 57%; growth at 50 µM [37]: -53%
